Assay results reported in patent US12122761B2, “2-azaspiro[3.4]octane derivatives as M4 agonists” (NOVARTIS AG, priority 2019, dated 2024).

Experiments:
[1] = molecular target: T1, human cloned CHRM4 receptor (M4_CHO cells) (Homo sapiens, UniProt P08173); experiment: CHRM4 Ca++ Flux Assay (agonist mode, FDSS 7000EX); format: cell-based; settings: for Emax: Percent Activity, read-out: M4 FDSS PA; for EC50: geometric mean if tested more than once, read-out: M4 FDSS EC50
T1 construct: expressed in transfected cells; host or cells: CHO-K1
T1 sequence (P08173 1-479): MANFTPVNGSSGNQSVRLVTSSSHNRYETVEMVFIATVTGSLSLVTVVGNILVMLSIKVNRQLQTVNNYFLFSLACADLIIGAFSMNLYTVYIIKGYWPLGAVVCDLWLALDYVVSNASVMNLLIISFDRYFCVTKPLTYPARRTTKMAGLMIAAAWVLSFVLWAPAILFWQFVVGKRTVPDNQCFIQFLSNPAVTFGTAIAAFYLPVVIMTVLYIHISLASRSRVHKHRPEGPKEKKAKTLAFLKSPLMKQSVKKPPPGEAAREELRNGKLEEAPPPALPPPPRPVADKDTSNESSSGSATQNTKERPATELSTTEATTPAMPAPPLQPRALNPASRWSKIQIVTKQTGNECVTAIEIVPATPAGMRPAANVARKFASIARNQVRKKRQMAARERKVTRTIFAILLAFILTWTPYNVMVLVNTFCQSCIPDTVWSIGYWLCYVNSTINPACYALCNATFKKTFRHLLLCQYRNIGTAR
How it was run: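 M4_CHO cells loaded with a Ca++ dye for at least 1 h were held 60 min at room temperature in HEPES/probenecid buffer with 20 μM ATP. Ca++ flux after an 11-point compound dose, in triplicate and agonist mode, was recorded over 3 min. Four-parameter fits gave curves, with activity expressed relative to the Carbachol EC100.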

[2] = molecular target: T2, human cloned CHRM5 receptor (M5_CHO) (Homo sapiens, UniProt P08912); experiment: CHRM5 Ca++ Flux Assay (agonist mode, FDSS 7000EX); format: cell-based; settings: for Emax: Percent Activity measured to EC100 of Carbachol, read-out: M5 FDSS PA; for EC50: agonist mode, geometric mean if tested more than once, read-out: M5 FDSS EC50
T2 construct: expressed in transfected cells; host or cells: CHO (M5_CHO)
T2 sequence (P08912 1-532): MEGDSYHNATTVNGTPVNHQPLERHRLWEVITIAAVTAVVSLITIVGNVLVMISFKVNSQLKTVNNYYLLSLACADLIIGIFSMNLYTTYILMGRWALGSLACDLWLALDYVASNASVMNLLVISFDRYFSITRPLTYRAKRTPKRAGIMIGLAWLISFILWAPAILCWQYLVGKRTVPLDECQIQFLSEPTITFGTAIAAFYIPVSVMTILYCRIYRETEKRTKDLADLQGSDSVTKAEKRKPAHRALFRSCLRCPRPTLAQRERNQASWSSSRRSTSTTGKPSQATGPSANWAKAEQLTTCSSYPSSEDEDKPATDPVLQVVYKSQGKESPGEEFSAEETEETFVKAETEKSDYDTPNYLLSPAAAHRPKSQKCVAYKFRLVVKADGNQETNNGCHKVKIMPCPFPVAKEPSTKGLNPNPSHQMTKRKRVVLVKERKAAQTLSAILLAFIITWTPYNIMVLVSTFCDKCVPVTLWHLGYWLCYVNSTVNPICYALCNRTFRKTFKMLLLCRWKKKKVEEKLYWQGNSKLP
How it was run: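 Fluorescent intracellular Ca++ signal, recorded for 3 min, served as read-out for CHO-K1 cells stably carrying human M3 or M5 receptor. Triplicate 11-point dose responses were averaged and fitted to a four-parameter model, with percent activity referenced to the carbachol EC100.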

Emax [1]	EC50 [1]	Emax [2]	EC50 [2]	Structure (SMILES)
92%	0.002 µM	0%	> 25 µM	Fc1ccc(C2CCOC2)c(C2CCN([C@@H]3CCC4(C3)CN(c3nnco3)C4)CC2)c1 (mixture of isomers) [Example 2J, 2-((6R)-6-(4-(5-fluoro-2-(tetrahydrofuran-3-yl)phenyl)piperidin-1-yl)-2-azaspiro[3.4]octan-2-yl)-1,3,4-oxadiazole]
25%	0.063 µM	0%	> 25 µM	Cc1nccnc1N1CC2(CC[C@@H](N3CCC(c4ccccc4OCC(C)(C)O)CC3)C2)C1 [Example 5T, (R)-2-methyl-1-(2-(1-(2-(3-methylpyrazin-2-yl)-2-azaspiro[3.4]octan-6-yl)piperidin-4-yl)phenoxy)propan-2-ol]
86%	0.002 µM	0%	> 25 µM	CC1(COc2ccccc2C2CCN([C@@H]3CCC4(C3)CN(c3nnco3)C4)CC2)CCOCC1 [Example 2E, (R)-2-(6-(4-(2-((4-methyltetrahydro-2H-pyran-4-yl)methoxy)phenyl)piperidin-1-yl)-2-azaspiro[3.4]octan-2-yl)-1,3,4-oxadiazole]
68%	0.005 µM	0%	> 25 µM	CC(C)(O)COc1ccccc1C1CCN([C@@H]2CCC3(C2)CN(c2ncns2)C3)CC1 [Example 3K, (R)-1-(2-(1-(2-(1,2,4-thiadiazol-5-yl)-2-azaspiro[3.4]octan-6-yl)piperidin-4-yl)phenoxy)-2-methylpropan-2-ol]
50%	0.019 µM	0%	> 25 µM	COC(C)(C)COc1ccccc1C1CCN([C@@H]2CCC3(C2)CN(C(=O)C2COC2)C3)CC1 [Example 7HH, (R)-(6-(4-(2-(2-methoxy-2-methylpropoxy)phenyl)piperidin-1-yl)-2-azaspiro[3.4]octan-2-yl)(oxetan-3-yl)methanone]
58%	0.02 µM	0%	> 25 µM	CC(C)(O)COc1ccccc1C1CCN([C@@H]2CCC3(C2)CN(C(=O)C2COC2)C3)CC1 [Example 7L, (R)-(6-(4-(2-(2-hydroxy-2-methylpropoxy)phenyl)piperidin-1-yl)-2-azaspiro[3.4]octan-2-yl)(oxetan-3-yl)methanone]
24%	0.054 µM	0%	> 25 µM	COCCOc1ccccc1C1CCN([C@@H]2CCC3(C2)CN(c2cccnn2)C3)CC1 [Example 5X, (R)-6-(4-(2-(2-methoxyethoxy)phenyl)piperidin-1-yl)-2-(pyridazin-3-yl)-2-azaspiro[3.4]octane]
55%	0.007 µM	0%	> 25 µM	O=C(C1COC1)N1CC2(CC[C@@H](N3CCC(c4ccccc4OCC4CC4)CC3)C2)C1 [Example 7I, (R)-(6-(4-(2-(cyclopropylmethoxy)phenyl)piperidin-1-yl)-2-azaspiro[3.4]octan-2-yl)(oxetan-3-yl)methanone]
50%	0.006 µM	0%	> 25 µM	FC1(COc2ccccc2C2CCN([C@@H]3CCC4(C3)CN(c3nncs3)C4)CC2)CCOCC1 [Example 1J, (R)-2-(6-(4-(2-((4-fluorotetrahydro-2H-pyran-4-yl)methoxy)phenyl)piperidin-1-yl)-2-azaspiro[3.4]octan-2-yl)-1,3,4-thiadiazole]
71%	0.001 µM	10%	2.02 µM	FC1(COc2ccccc2C2CCN([C@@H]3CCC4(C3)CN(c3nncs3)C4)CC2)COC1 [Example 1H, (R)-2-(6-(4-(2-((3-fluorooxetan-3-yl)methoxy)phenyl)piperidin-1-yl)-2-azaspiro[3.4]octan-2-yl)-1,3,4-thiadiazole]
57%	0.002 µM	16%	2.2 µM	N#CCCOc1ccccc1C1CCN([C@@H]2CCC3(C2)CN(C(=O)C2COC2)C3)CC1 [Example 7D, (R)-3-(2-(1-(2-(oxetane-3-carbonyl)-2-azaspiro[3.4]octan-6-yl)piperidin-4-yl)phenoxy)propanenitrile]
70%	0.001 µM	0%	> 25 µM	COc1ccccc1C1CCN([C@@H]2CCC3(C2)CN(c2ccns2)C3)CC1 [Example 3I, (R)-5-(6-(4-(2-methoxyphenyl)piperidin-1-yl)-2-azaspiro[3.4]octan-2-yl)isothiazole]
26%	0.082 µM	0%	> 25 µM	COc1ccccc1C1CCN([C@@H]2CCC3(C2)CN(c2cnc(C)cn2)C3)CC1 [Example 5DD, (R)-6-(4-(2-methoxyphenyl)piperidin-1-yl)-2-(5-methylpyrazin-2-yl)-2-azaspiro[3.4]octane]

Structure (SMILES)	Emax [1]	EC50 [1]	Emax [2]	EC50 [2]
O=C(C1COC1)N1CC2(CC[C@@H](N3CCC(c4ccccc4OC4CCC4)CC3)C2)C1 [Example 7H, (R)-(6-(4-(2-cyclobutoxyphenyl)piperidin-1-yl)-2-azaspiro[3.4]octan-2-yl)(oxetan-3-yl)methanone]	70%	0.004 µM	0%	> 25 µM
